US10098904B2, “Zidovudine combination therapies for treating microbial infections” (HELPERBY THERAPEUTICS LIMITED, priority 2014, dated 2018)

How the values were obtained:
[1] = system: NDM-1 BAA2470 K. pneumoniae; format: in vivo; settings: mice, intravenous; rifampicin 10 mg/kg, colistin 20 mg/kg, HT0120663 5 mg/kg; singly
enterobacteria = settings: on some enterobacteria; cited from earlier work
NDM-1 BAA2469 E. coli = format: in vivo; settings: mice, intravenous; rifampicin 10 mg/kg, colistin 20 mg/kg, HT0120663 5 mg/kg; singly

Molecule | in vivo activity of drug alone [1] | antibacterial effect (enterobacteria) | in vivo activity of drug alone (NDM-1 BAA2469 E. coli)
Cc1cn([C@H]2C[C@H](N=[N+]=[N-])[C@@H](CO)O2)c(=O)[nH]c1=O [HT0120663, Zidovudine] | no in vivo activity | bactericidal effect | no in vivo activity
Colistin | no in vivo activity | – | no in vivo activity
